Test system: MV-4-11 cells
Test: Gene expression microarray analysis (Affymetrix PrimeView) and GSEA
Assay type: cell-based, human
Parameters: RFU PODN (11730768_x_at) / Fold change /veh PODN (11730768_x_at) / RFU LINC00158 (11744669_a_at) / Fold change /veh LINC00158 (11744669_a_at) / RFU DUSP10 (11751237_a_at) / Fold change /veh DUSP10 (11751237_a_at) / RFU ID3 (11757404_x_at) / Fold change /veh ID3 (11757404_x_at) / RFU PLEKHG5 (11737974_s_at) / Fold change /veh PLEKHG5 (11737974_s_at) / RFU LRRC4B (11730491_at) / Fold change /veh LRRC4B (11730491_at) / RFU GIMAP4 (11747438_a_at) / Fold change /veh GIMAP4 (11747438_a_at) / RFU KRT8 (11758183_x_at) / Fold change /veh KRT8 (11758183_x_at) / RFU CNN1 (11734310_a_at) / Fold change /veh CNN1 (11734310_a_at) / RFU VPS37D (11726825_at) / Fold change /veh VPS37D (11726825_at) / RFU C10orf10 (11716522_x_at) / Fold change /veh C10orf10 (11716522_x_at) / RFU KIR2DL2 /// KIR2DL4 /// KIR2DL5A /// KIR2DL5B /// KIR2DS1 /// KIR2DS2 /// KIR2DS3 /// KIR2DS4 /// KIR3DL3 /// KIR3DL3 /// KIR3DS1 (11738374_at) / Fold change /veh KIR2DL2 /// KIR2DL4 /// KIR2DL5A /// KIR2DL5B /// KIR2DS1 /// KIR2DS2 /// KIR2DS3 /// KIR2DS4 /// KIR3DL3 /// KIR3DL3 /// KIR3DS1 (11738374_at) / RFU C1QL1 (11718748_at) / Fold change /veh C1QL1 (11718748_at) / RFU TMPRSS4 (11747572_a_at) / Fold change /veh TMPRSS4 (11747572_a_at) / RFU HAMP (11756126_x_at) / Fold change /veh HAMP (11756126_x_at) / RFU RNFT2 (11725882_a_at) / Fold change /veh RNFT2 (11725882_a_at) / RFU NR4A2 (11747474_a_at) / Fold change /veh NR4A2 (11747474_a_at) / RFU ABCC12 (11746883_a_at) / Fold change /veh ABCC12 (11746883_a_at) / RFU TMEM136 (11760407_x_at) / Fold change /veh TMEM136 (11760407_x_at) / RFU CLDN22 /// WWC2 (11732394_at) / Fold change /veh CLDN22 /// WWC2 (11732394_at) / RFU HLA-DPB1 (11760878_x_at) / Fold change /veh HLA-DPB1 (11760878_x_at) / RFU SPINT1 (11716480_a_at) / Fold change /veh SPINT1 (11716480_a_at) / RFU GAP43 (11754022_s_at) / Fold change /veh GAP43 (11754022_s_at) / RFU A4GNT (11735810_at) / Fold change /veh A4GNT (11735810_at) / RFU PRB3 (11715151_x_at) / Fold change /veh PRB3 (11715151_x_at) / RFU TUBB4B (11761932_at) / Fold change /veh TUBB4B (11761932_at) / RFU CAPN14 (11732068_a_at) / Fold change /veh CAPN14 (11732068_a_at) / RFU TMCC2 (11721928_a_at) / Fold change /veh TMCC2 (11721928_a_at) / RFU IRGQ (11745062_a_at) / Fold change /veh IRGQ (11745062_a_at) / RFU FAM174B (11720279_a_at) / Fold change /veh FAM174B (11720279_a_at) / RFU TMPRSS4 (11748680_a_at) / Fold change /veh TMPRSS4 (11748680_a_at) / RFU FAM212B (11763350_a_at) / Fold change /veh FAM212B (11763350_a_at) / RFU PLEKHG5 (11743358_a_at) / Fold change /veh PLEKHG5 (11743358_a_at) / RFU ZSCAN30 (11745921_a_at) / Fold change /veh ZSCAN30 (11745921_a_at) / RFU CMKLR1 (11741424_a_at) / Fold change /veh CMKLR1 (11741424_a_at) / RFU LOC101060620 /// MAPK8IP1 (11723275_at) / Fold change /veh LOC101060620 /// MAPK8IP1 (11723275_at) / RFU SPTSSB (11747773_x_at) / Fold change /veh SPTSSB (11747773_x_at) / RFU PRSS12 (11739890_at) / Fold change /veh PRSS12 (11739890_at) / RFU BIN1 (11741810_x_at) / Fold change /veh BIN1 (11741810_x_at) / RFU WNT11 (11732464_a_at) / Fold change /veh WNT11 (11732464_a_at) / RFU C10orf10 (11716521_a_at) / Fold change /veh C10orf10 (11716521_a_at) / RFU C5orf56 (11738089_at) / Fold change /veh C5orf56 (11738089_at) / RFU CYB561 (11721691_x_at) / Fold change /veh CYB561 (11721691_x_at) / RFU ANKRD19P (11752326_a_at) / Fold change /veh ANKRD19P (11752326_a_at) / RFU OR2T12 /// OR2T33 /// OR2T8 (11738714_s_at) / Fold change /veh OR2T12 /// OR2T33 /// OR2T8 (11738714_s_at) / RFU VCAN (11748164_a_at) / Fold change /veh VCAN (11748164_a_at) / RFU JSRP1 (11732532_at) / Fold change /veh JSRP1 (11732532_at) / RFU KRTAP10-11 (11738290_x_at) / Fold change /veh KRTAP10-11 (11738290_x_at) / RFU MYO3A (11730013_a_at) / Fold change /veh MYO3A (11730013_a_at) / RFU EBF3 (11725865_a_at) / Fold change /veh EBF3 (11725865_a_at) / RFU CAMK2N1 (11719241_x_at) / Fold change /veh CAMK2N1 (11719241_x_at) / RFU C5orf56 (11738088_a_at) / Fold change /veh C5orf56 (11738088_a_at) / RFU OLFML3 (11715873_a_at) / Fold change /veh OLFML3 (11715873_a_at) / RFU LOC100653217 /// NTM (11731650_a_at) / Fold change /veh LOC100653217 /// NTM (11731650_a_at) / RFU MAPK11 (11762145_a_at) / Fold change /veh MAPK11 (11762145_a_at) / RFU FIZ1 (11724087_x_at) / Fold change /veh FIZ1 (11724087_x_at) / RFU OASL (11726364_x_at) / Fold change /veh OASL (11726364_x_at) / RFU SOX15 (11748057_x_at) / Fold change /veh SOX15 (11748057_x_at) / RFU CD79A (11719716_a_at) / Fold change /veh CD79A (11719716_a_at) / RFU HIST1H1D (11736915_at) / Fold change /veh HIST1H1D (11736915_at) / RFU CASKIN2 (11723855_a_at) / Fold change /veh CASKIN2 (11723855_a_at) / RFU LOC730098 (11760151_x_at) / Fold change /veh LOC730098 (11760151_x_at) / RFU OR4N2 (11742367_at) / Fold change /veh OR4N2 (11742367_at) / RFU PRRT2 (11749266_a_at) / Fold change /veh PRRT2 (11749266_a_at) / RFU SNX32 (11753110_a_at) / Fold change /veh SNX32 (11753110_a_at) / RFU CDHR5 (11726645_a_at) / Fold change /veh CDHR5 (11726645_a_at) / RFU RCAN1 (11760418_a_at) / Fold change /veh RCAN1 (11760418_a_at) / RFU FAM167A (11723789_a_at) / Fold change /veh FAM167A (11723789_a_at) / RFU FAM26E (11764081_at) / Fold change /veh FAM26E (11764081_at) / RFU ISYNA1 (11749810_s_at) / Fold change /veh ISYNA1 (11749810_s_at) / RFU ACY1 (11761880_at) / Fold change /veh ACY1 (11761880_at) / RFU 11764098_at / Fold change /veh 11764098_at / RFU SAMD14 (11745864_x_at) / Fold change /veh SAMD14 (11745864_x_at) / RFU NPB (11741838_a_at) / Fold change /veh NPB (11741838_a_at) / RFU TMPRSS6 (11731388_a_at) / Fold change /veh TMPRSS6 (11731388_a_at) / RFU KRTAP10-2 (11738614_at) / Fold change /veh KRTAP10-2 (11738614_at) / RFU ARHGAP8 /// PRR5-ARHGAP8 (11727945_x_at) / Fold change /veh ARHGAP8 /// PRR5-ARHGAP8 (11727945_x_at) / RFU KRTAP5-7 /// NADSYN1 (11734609_at) / Fold change /veh KRTAP5-7 /// NADSYN1 (11734609_at) / RFU RASL12 (11751679_a_at) / Fold change /veh RASL12 (11751679_a_at) / RFU CDKN2B (11736163_a_at) / Fold change /veh CDKN2B (11736163_a_at) / RFU PRF1 (11729649_at) / Fold change /veh PRF1 (11729649_at) / RFU, ZNF638 /// ZNF638-IT1 / Fold change vs veh, ZNF638 /// ZNF638-IT1 / RFU, PANK3 / Fold change vs veh, PANK3 / RFU, SH3YL1 / Fold change vs veh, SH3YL1 / RFU, ZEB2 / Fold change vs veh, ZEB2 / RFU, NRIP1 / Fold change vs veh, NRIP1 / RFU, PTTG1IP / Fold change vs veh, PTTG1IP / RFU, CAPN2 / Fold change vs veh, CAPN2 / RFU, MED14 / Fold change vs veh, MED14 / RFU, SNORA58 / Fold change vs veh, SNORA58 / RFU, C1orf63 / Fold change vs veh, C1orf63 / RFU, LRRFIP1 / Fold change vs veh, LRRFIP1 / RFU, NDUFAF7 / Fold change vs veh, NDUFAF7 / RFU, SLC12A2 / Fold change vs veh, SLC12A2 / RFU, IBTK / Fold change vs veh, IBTK / RFU, ESF1 / Fold change vs veh, ESF1 / Fold change vs veh, TMEM50B / RFU, TAOK1 / Fold change vs veh, TAOK1 / RFU, ACBD3 / Fold change vs veh, ACBD3 / RFU, TMA16 / Fold change vs veh, TMA16 / RFU, RWDD3 / Fold change vs veh, RWDD3 / RFU, BCAT1 / Fold change vs veh, BCAT1 / RFU, EDEM3 / Fold change vs veh, EDEM3 / RFU, TMEM33 / Fold change vs veh, TMEM33 / RFU, WDR75 / Fold change vs veh, WDR75 / RFU, AHCTF1 / Fold change vs veh, AHCTF1 / RFU, TFRC / Fold change vs veh, TFRC / RFU, ZDHHC17 / Fold change vs veh, ZDHHC17 / RFU, NOM1 / Fold change vs veh, NOM1 / RFU, ARL8B / Fold change vs veh, ARL8B / RFU, ZBTB11 / Fold change vs veh, ZBTB11 / RFU, TAMM41 / Fold change vs veh, TAMM41 / RFU, KIAA1704 /// LOC100996395 / Fold change vs veh, KIAA1704 /// LOC100996395 / RFU, ING1 / Fold change vs veh, ING1 / RFU, TRMT61B / Fold change vs veh, TRMT61B / RFU, FUBP3 / Fold change vs veh, FUBP3 / RFU, TP53 / Fold change vs veh, TP53 / RFU, TNKS2 / Fold change vs veh, TNKS2 / RFU, ZFP14 / Fold change vs veh, ZFP14 / RFU, ACTR2 / Fold change vs veh, ACTR2 / RFU, PPP3R1 / Fold change vs veh, PPP3R1 / RFU, PIK3R1 / Fold change vs veh, PIK3R1 / RFU, HNRNPA1 / Fold change vs veh, HNRNPA1 / RFU, RNF170 / Fold change vs veh, RNF170 / RFU, ZNF28 / Fold change vs veh, ZNF28 / RFU, RNGTT / Fold change vs veh, RNGTT / RFU, OGT / Fold change vs veh, OGT / RFU, BRD1 / Fold change vs veh, BRD1 / RFU, MARS / Fold change vs veh, MARS / RFU, ZNF655 / Fold change vs veh, ZNF655 / RFU, FAHD1 / Fold change vs veh, FAHD1 / RFU, BDP1 / Fold change vs veh, BDP1 / RFU, LRRCC1 / Fold change vs veh, LRRCC1 / RFU, ARID1A / Fold change vs veh, ARID1A / RFU, ZNF146 / Fold change vs veh, ZNF146 / RFU, ZNF330 / Fold change vs veh, ZNF330 / RFU, GPN3 / Fold change vs veh, GPN3 / RFU, C9orf123 / Fold change vs veh, C9orf123 / RFU, N4BP2L2 / Fold change vs veh, N4BP2L2 / RFU, ARFIP1 / Fold change vs veh, ARFIP1 / RFU, FAM179B / Fold change vs veh, FAM179B / RFU, BCL10 / Fold change vs veh, BCL10 / RFU, UHRF1BP1L / Fold change vs veh, UHRF1BP1L / RFU, BET1 / Fold change vs veh, BET1 / RFU, CNOT2 / Fold change vs veh, CNOT2 / RFU, ZNF268 / Fold change vs veh, ZNF268 / Fold change vs veh, ZNF507 / RFU, DGCR2 / Fold change vs veh, DGCR2 / RFU, WDSUB1 / Fold change vs veh, WDSUB1 / Fold change vs veh, HSP90B1 /// MIR3652 / RFU, ADSS / Fold change vs veh, ADSS / RFU, GK / Fold change vs veh, GK / RFU, ZNF148 / Fold change vs veh, ZNF148 / RFU, TAF9 / Fold change vs veh, TAF9 / RFU, SLC1A5 / Fold change vs veh, SLC1A5 / RFU, SLMO2 / Fold change vs veh, SLMO2 / RFU, ABCC4 / Fold change vs veh, ABCC4 / RFU, LOC101060439 /// RAP1B / Fold change vs veh, LOC101060439 /// RAP1B / RFU, RFX7 / Fold change vs veh, RFX7 / RFU, GTPBP10 / Fold change vs veh, GTPBP10 / RFU, CNEP1R1 / Fold change vs veh, CNEP1R1 / RFU, BIVM-ERCC5 /// ERCC5 / Fold change vs veh, BIVM-ERCC5 /// ERCC5 / RFU, ILF3 / Fold change vs veh, ILF3 / RFU 11762660_at / Fold change /veh 11762660_at / RFU VCAN (11757783_s_at) / Fold change /veh VCAN (11757783_s_at) / RFU DDX43 (11728927_at) / Fold change /veh DDX43 (11728927_at) / RFU KRT8 (11758188_x_at) / Fold change /veh KRT8 (11758188_x_at) / RFU NKD1 (11759106_at) / Fold change /veh NKD1 (11759106_at) / RFU SRD5A1 (11742802_a_at) / Fold change /veh SRD5A1 (11742802_a_at) / RFU TPSAB1 /// TPSB2 (11721975_s_at) / Fold change /veh TPSAB1 /// TPSB2 (11721975_s_at) / RFU GSTM3 (11746129_a_at) / Fold change /veh GSTM3 (11746129_a_at) / RFU IL23R (11737362_x_at) / Fold change /veh IL23R (11737362_x_at) / RFU TMEM51 (11727254_a_at) / Fold change /veh TMEM51 (11727254_a_at) / RFU PIWIL2 (11732686_x_at) / Fold change /veh PIWIL2 (11732686_x_at) / RFU ORM1 (11744905_x_at) / Fold change /veh ORM1 (11744905_x_at) / RFU CCDC152 (11743942_at) / Fold change /veh CCDC152 (11743942_at) / RFU ECM1 (11717891_a_at) / Fold change /veh ECM1 (11717891_a_at) / RFU IL23R (11748794_a_at) / Fold change /veh IL23R (11748794_a_at) / RFU TNFAIP8L3 (11732012_x_at) / Fold change /veh TNFAIP8L3 (11732012_x_at) / RFU MBOAT4 (11741988_at) / Fold change /veh MBOAT4 (11741988_at) / RFU 11764193_at / Fold change /veh 11764193_at / RFU TMEM53 (11763286_at) / Fold change /veh TMEM53 (11763286_at) / RFU MAGEB2 (11727129_at) / Fold change /veh MAGEB2 (11727129_at) / RFU TMEM200A (11744735_a_at) / Fold change /veh TMEM200A (11744735_a_at) / RFU CCDC152 (11751479_a_at) / Fold change /veh CCDC152 (11751479_a_at) / RFU FAM211A (11726209_a_at) / Fold change /veh FAM211A (11726209_a_at) / RFU RGS16 (11746705_a_at) / Fold change /veh RGS16 (11746705_a_at) / RFU VCAN (11755009_s_at) / Fold change /veh VCAN (11755009_s_at) / RFU RHOB (11743442_s_at) / Fold change /veh RHOB (11743442_s_at) / RFU RGS16 (11720943_a_at) / Fold change /veh RGS16 (11720943_a_at) / RFU RGS16 (11720944_at) / Fold change /veh RGS16 (11720944_at) / RFU, VPS4B / Fold change vs veh, VPS4B / RFU, CREB1 / Fold change vs veh, CREB1 / RFU, DNAJC13 / Fold change vs veh, DNAJC13 / RFU, GNAQ / Fold change vs veh, GNAQ / RFU, CDK5R1 / Fold change vs veh, CDK5R1 / RFU, ZRANB3 / Fold change vs veh, ZRANB3 / RFU, CUL4A / Fold change vs veh, CUL4A / RFU, CCNY / Fold change vs veh, CCNY / RFU, UFL1 / Fold change vs veh, UFL1 / RFU, COG3 / Fold change vs veh, COG3 / RFU, DIAPH2 / Fold change vs veh, DIAPH2 / RFU, SKA2 / Fold change vs veh, SKA2 / RFU, AFF3 / Fold change vs veh, AFF3 / RFU, LMF1 / Fold change vs veh, LMF1 / RFU, IPO11 / Fold change vs veh, IPO11 / RFU, DFFB / Fold change vs veh, DFFB / RFU, FOXP1 / Fold change vs veh, FOXP1 / RFU, CARD8 / Fold change vs veh, CARD8 / RFU, STRN3 / Fold change vs veh, STRN3 / RFU, ADK / Fold change vs veh, ADK / RFU, RASSF2 / Fold change vs veh, RASSF2 / RFU, WIPF1 / Fold change vs veh, WIPF1 / RFU, LARP1B / Fold change vs veh, LARP1B / RFU, RASA1 / Fold change vs veh, RASA1 / RFU, RB1 / Fold change vs veh, RB1 / RFU, PPFIA1 / Fold change vs veh, PPFIA1 / RFU, MAT2A / Fold change vs veh, MAT2A / RFU, CCT5 / Fold change vs veh, CCT5 / RFU, WDR92 / Fold change vs veh, WDR92 / RFU, CUX1 / Fold change vs veh, CUX1 / RFU, TTC7A / Fold change vs veh, TTC7A / RFU, TMEM135 / Fold change vs veh, TMEM135 / RFU, DEPTOR / Fold change vs veh, DEPTOR / RFU, CPM / Fold change vs veh, CPM / RFU, DNAJB6 / Fold change vs veh, DNAJB6 / RFU, CACNA2D3 / Fold change vs veh, CACNA2D3 / RFU, DTX4 / Fold change vs veh, DTX4 / RFU, TFCP2 / Fold change vs veh, TFCP2 / RFU, GMCL1 /// GMCL1P1 / Fold change vs veh, GMCL1 /// GMCL1P1 / RFU, AEBP2 / Fold change vs veh, AEBP2 / RFU, SNHG1 /// SNORD22 /// SNORD25 /// SNORD26 /// SNORD27 /// SNORD28 /// SNORD29 /// SNORD31 / Fold change vs veh, SNHG1 /// SNORD22 /// SNORD25 /// SNORD26 /// SNORD27 /// SNORD28 /// SNORD29 /// SNORD31 / Fold change (Aza/veh), C12orf56 (ProbeSet 11735607_a_at) / Fold change (ACY-1035/veh), C12orf56 (ProbeSet 11735607_a_at) / Fold change (Aza/veh), FGFR1OP (ProbeSet 11751329_s_at) / Fold change (ACY-1035/veh), FGFR1OP (ProbeSet 11751329_s_at) / Fold change (Aza/veh), VPS36 (ProbeSet 11739960_a_at) / Fold change (ACY-1035/veh), VPS36 (ProbeSet 11739960_a_at) / RFU SYPL1 (11715823_x_at) / Fold change /veh SYPL1 (11715823_x_at) / RFU IGFBP7 (11715501_s_at) / Fold change /veh IGFBP7 (11715501_s_at) / RFU REEP3 (11722064_at) / Fold change /veh REEP3 (11722064_at) / RFU IGLL1 (11728026_x_at) / Fold change /veh IGLL1 (11728026_x_at): dose or concentration left out as unconfirmed
Conditions: MV-4-11 cells, 48 hours

Compound: Nc1ccc(-c2cccs2)cc1NC(=O)c1ccc2c(c1)cc(C1CC1)n2CCN1CCOCC1 [ACY-1035]
- RFU BIN1 (11741810_x_at): 33.72 RFU

Source: publication PMC5218480 (PLoS ONE, 2017)
